Tests used:
[1] = tested on: Chromobacterium violaceum wild type 85 (wt85); assay: Quorum sensing inhibition assay (disk, pigment production); format: cell-based; conditions: read-out: Quorum Sensing Inhibition (mm) ± SD
Excerpt: (§1) The sensor strain Chromobacterium violaceum CV026 and the acyl-homoserine lactones (AHLs) producer strain Sphingomonas paucimobilis Ezf 10-17 (EZF) were inoculated as parallel lines, and the AHL producers, Chromobacterium violaceum wild type 85 (wt85) and Serratia marcescens AS-1 were inoculated as a single line.
(§2) For the QS tests, all the bacteria used were Gram-negative. The bacteria used were Chromobacterium violaceum wild type 85 (wt85), characterized by the AHL signal molecule-mediated production of the purple violacein pigment, capable of endogenous QS-signal molecule production (N-hexanoyl-L-HSL), C. violaceum CV026 (CV026), a Tn5 transposase-mutant, AHL-signal molecule indicator strain (produces purple violacein pigment in the presence of AHL), which is incapable of endogenous QS-signal molecule-production, but useful in the detection of external stimuli, Sphingomonas paucimobilis Ezf 10-17 (EZF), AHL-producing-strain (used with C. violaceum CV026), and Serratia marcescens AS-1, characterized by the AHL signal molecule-mediated production of the orange–red pigment prodigiosin (2-methyl-3-pentyl-6-methoxyprodigiosin), capable of endogenous QS-signal molecule production (N-hexanoyl-L-HSL), were applied.
(§3) The QS inhibitory effect of the compounds was examined on the EZF and the sensor CV026 strains, on the wt85 strain, and on S. marcescens, for 4, 5, 11, 12, 16, 19, and 20. The method used was the parallel inoculation method, where pair combinations of the used sensor strain CV026 and the N-acyl-homoserine lactone (AHL)-producing strain EZF were inoculated directly onto the LB*-A agar surface in parallel, at an approximate distance of 5 mm from each other. S. marcescens AS-1 and wt85 were inoculated as a single line. Filter paper disks (7 mm in diameter) were placed on the center of the inoculated line(s) and impregnated with 8 µL of a solution of 10 mM of the compounds. […] The agar plates were incubated at room temperature (20 °C) for 24–48 h. The QS inhibition was accessed visually, through the inhibition of pigment production. The discolored, but intact, bacterial colonies were measured with a ruler.

Serratia marcescens AS-1 = assay: as above; format: cell-based; conditions: AS1, read-out: Quorum Sensing Inhibition (mm) ± SD
Excerpt: as §1, §2, §3

[2] = tested on: EZF + CV026 (Sphingomonas paucimobilis Ezf 10-17 + Chromobacterium violaceum CV026); assay: Quorum sensing inhibition assay (parallel inoculation, pigment production); format: cell-based; conditions: read-out: Quorum Sensing Inhibition (mm) ± SD
Excerpt: as §1, §2, §3

S. aureus 272123 [3] = assay: Efflux pump inhibition assay (real-time ethidium bromide accumulation); format: cell-based, Staphylococcus aureus; conditions: compound 50 µM, EB 1 µg/mL, minute 60
Method: Compounds 1–20 were assessed for their capability of modulating ethidium bromide (EB) accumulation on two resistant strains. […] However, norA is a core gene of the S. aureus as a species, which means that the NorA pump occurs in all S. aureus strains.
(§4) Salmonella enterica serovar Typhimurium SE03, was used as a Gram-negative bacterium. This strain has a deletion of the acrA gene, which was predicted with the least affinity for the compounds. The aim of these studies was to perform a first screening of these compounds and their ability to modulate the efflux of EB. […] The relative fluorescence index (RFI) was calculated based on the means of relative fluorescence units, depicted in Table 2.
(§5) Compounds 1–20 were evaluated for their ability to inhibit efflux pumps in SE03 and S. aureus 272123 strains, through the real-time fluorimetry, monitoring the intracellular accumulation of EB, an efflux pump substrate. This was determined by the automated method using a CLARIOstar Plus plate reader (BMG Labtech, Ortenberg, Germany). Reserpine and CCCP were applied at 25 µM as positive controls, and the solvent DMSO was applied at 1% v/v. The bacterial strains were incubated in an appropriate culture media (TSB—S. aureus 272123; LB-B—SE03) at 37 °C until they reached an optical density (OD) between 0.4 and 0.6 at λ = 600 nm. The culture was centrifuged at 13,000× g for 3 min, and the pellet washed and resuspended with PBS. The suspension was centrifuged again in the same conditions and resuspended in PBS. The compounds were applied at 50 µM in a solution of a non-toxic concentration of EB (1 µg/mL) in PBS. Then, 50 µL of this solution were transferred into a 96-well black microtiter plate (Greiner Bio-One Hungary Kft, Mosonmagyaróvár, Fertősor, Hungary), and 50 µL of bacterial suspension (OD600 0.4–0.6) were added to each well. The plates were placed into the CLARIOstar plate reader, and the fluorescence was monitored at excitation and emission wavelengths of 530 nm and 600 nm every minute for one hour on a real-time basis. From the real-time data, the activity of the compounds, namely the RFI of the last time point (minute 60) of the EB accumulation assay, was calculated according to the following formula:(1) RFI=RFtreated−RFuntreated/RFuntreated where RFtreated is the relative fluorescence (RF) at the last time point of EB accumulation curve in the presence of the compound, and RFuntreated is the RF at the last time point of the EB accumulation curve of the untreated control, having only the solvent (DMSO) control. The accumulation curves were designed using Microsoft Excel®.

[4] = tested on: SE03 (acrA gene-inactivated Salmonella enterica serovar Typhimurium SL1344); assay: as above; format: cell-based; conditions: compound 50 µM, EB 1 µg/mL, minute 60
Method: as §4, §5

S. aureus ATCC 29213 = assay: Inhibition of biofilm formation (crystal violet); format: cell-based, Staphylococcus aureus; conditions: half the MIC, or 100 µM if MIC >100 µM, 48 h, 30 °C
S. aureus 272123 [5] = assay: Inhibition of biofilm formation (crystal violet); format: cell-based, Staphylococcus aureus; conditions: half the MIC, or 100 µM if MIC >100 µM, 48 h, 30 °C
Method: The biofilm inhibition, presented in percentages (%), was calculated based on the mean of absorbance units.
The bacterial strains used were the Gram-positive S. aureus ATCC 25923 and S. aureus 272123. The detection of the biofilm formation was possible with the use of the dye crystal violet (CV; 0.1% v/v). The initial inoculum was incubated in TSB overnight, and then diluted to an OD600 of 0.1. Then, the bacterial suspension was added to 96-well microtiter plates and the compounds were added at half the MIC. […] The final volume in each well was 200 µL. […] The plates were incubated at 30 °C for 48 h, with gentle stirring (100 rpm). After this incubation period, the TSB medium was discarded, and the plates were washed with tap water to remove unattached cells. Afterwards, 200 µL of a 0.1% v/v CV solution were added to the wells and incubated for 15 min at room temperature. Then, the CV solution was removed from the wells, and the plates were washed again with tap water, and 200 µL of a 70% ethanolic solution were added to the wells. The biofilm formation was determined by measuring the OD600 using a Multiscan EX ELISA plate reader (Thermo Labsystems, Cheshire, WA, USA). The anti-biofilm effect of the compounds was expressed as the percentage (%) of decrease in biofilm formation.

Cytotoxicity assay (MTT) = format: cell-based, mouse; conditions: mouse, NIH/3T3 mouse fibroblast cells, 24 h, MTT, read-out: Cytotoxicity IC50 (µM) ± SD
Method: In order to apply efflux pump inhibitors to treat patients, several issues should be addressed.
Mouse fibroblasts (NIH/3T3, ATCC CRL-1658TM) were cultivated in DMEM (Gibco 52100-039) and supplemented with 10% heat-inactivated fetal bovine serum (Biowest, VWR International Kft, Debrecen, Hungary), 2 mM of L-glutamine, 1 mM Na pyruvate, 100 U/L and 10 mg/L penicillin/streptomycin mixture (Sigma-Aldrich Chemie GmbH, Steinheim, Germany), respectively, and 0.1% nystatin (8.3 g/L in ethylene glycol). The adherent cells were detached using a combination of 0.25% Trypsin–Versene (EDTA) solution for 5 min at 37 °C. Before each cytotoxicity assay using this cell line, cells were seeded in untreated 96-well flat-bottom microtiter plates, following a 4-h incubation period in a humidified atmosphere (5% CO2, 95% air) at 37 °C [60].
The cytotoxicity of 4, 12, 16, 19, and 20 was assessed in NIH/3T3 cells. The compounds were added to the cells distributed into 96-well flat bottom microtiter plates at concentrations of […] and initially incubated for 24 h, after which a solution of MTT in PBS was added to each well and incubated for another 4 h. The concentrations used were the same as in the MIC assay. After this, 100 μL of SDS (10% in a 0.01 M HCl solution) were added to each well and incubated overnight at 37 °C. Doxorubicin was used as the positive control. Cell growth was determined in quadruplicate by measuring OD at λ = 540 nm (reference 630 nm) in a Multiscan EX ELISA reader (Thermo Labsystems, Cheshire, WA, USA). The percentage of inhibition of cell growth was determined according to the equation: (2) 100−(ODsample−ODmedium control/ODcell control−ODmedium control)×100

SMILES | zone of inhibition at 10000 µM [1] | zone of inhibition at 10000 µM (Serratia marcescens AS-1) | zone of inhibition at 10000 µM [2] | RFI ± SD (relative fluorescence index) (S. aureus 272123 [3]) | RFI ± SD (relative fluorescence index) [4] | Inhibition of Biofilm Formation (%) ± SD (S. aureus ATCC 29213) | Inhibition of Biofilm Formation (%) ± SD (S. aureus 272123 [5]) | IC50 at 24 h (Cytotoxicity assay (MTT))
CC(CN1c2ccccc2Sc2ccccc21)N(C)C (stereo not drawn) [PMZ, promethazine, reference compound] | 41 ± 0.5 mm | 18 ± 0.8 mm | 40 ± 0.1 mm |  |  |  |  | 
Cc1c(O)cc2oc3ccccc3c(=O)c2c1O [Compound 5] | 0 mm | 0 mm | 0 mm | 0.16 ± 0.08 ^2 | 1.74 ± 0.22 ^7 | 0 ^1% | 61.62 ± 16.51 ^3% | 
COc1ccc2c(=O)c3c(C)cc(OC)c(OC)c3oc2c1 [Compound 10] |  |  |  | 0.18 ± 0.20 ^5 | 0.24 ± 0.05 ^10 |  |  | 
COc1ccc2c(=O)c3c(CBr)cc(OC)c(OC)c3oc2c1 [Compound 13] |  |  |  | 0.53 ± 0.20 ^5 | 1.16 ± 0.64 ^10 |  |  | 
COc1cc(CN[C@H](C)c2ccc(Cl)cc2)c2c(=O)c3ccccc3oc2c1OC [Compound 20] | 0 mm | 0 mm | 0 mm | 1.08 ± 0.82 ^4 | 2.09 ± 0.05 ^11 |  | 77.17 ± 4.45 ^4% | 35.1 ± 4.86 µM
Cc1cc(O)c(O)c2oc3cc(O)ccc3c(=O)c12 [Compound 7] |  |  |  | −0.92 ± 0.00 ^5 | −0.87 ± 0.02 ^10 |  |  | 
COc1c(Cl)c(C)c2c(=O)c3ccccc3oc2c1OC [Compound 9] |  |  |  | −0.04 ± 0.26 ^4 | 0.05 ± 0.09 ^9 |  |  | 
COc1cc(C)c2c(=O)c3ccccc3oc2c1OC [Compound 8] |  |  |  | 0.15 ± 0.25 ^4 | 0.05 ± 0.11 ^9 |  |  | 
COc1cccc2oc3ccccc3c(=O)c12 [Compound 11] | 0 mm | 0 mm | 0 mm |  |  | 0 ^1% | 39.95 ± 7.66 ^3% | 
Cc1cc(O)c(O)c2oc3ccccc3c(=O)c12 [Compound 6] |  |  |  | −0.91 ± 0.01 ^4 | −0.91 ± 0.01 ^9 |  |  | 
COC(=O)c1cc(OC)c(OC)c2oc3cc(OC)ccc3c(=O)c12 [Compound 17] |  |  |  | −0.34 ± 0.02 ^5 | −0.29 ± 0.08 ^10 |  |  | 
O=c1c2ccccc2oc2c(O)cccc12 [Compound 1] |  |  |  | −0.36 ± 0.03 ^1 | −0.01 ± 0.05 ^6 |  |  | 
COc1cc(CNCc2ccc(Cl)cc2)c2c(=O)c3ccccc3oc2c1OC [Compound 18] |  |  |  | −0.01 ± 0.04 ^3 | 0.04 ± 0.04 ^8 |  |  | 
COc1cc(C=O)c2c(=O)c3ccccc3oc2c1O [Compound 14] |  |  |  | −0.28 ± 0.06 ^2 | 0.02 ± 0.02 ^7 |  |  | 
COc1cc(C=O)c2c(=O)c3ccccc3oc2c1OC [Compound 15] |  |  |  | 0.08 ± 0.07 ^4 | 0.13 ± 0.09 ^9 |  |  | 
COc1cc(CNCc2ccc(F)cc2)c2c(=O)c3ccccc3oc2c1OC [Compound 19] | 0 mm | 0 mm | 0 mm | 0.02 ± 0.02 ^3 | 2.86 ± 0.14 ^8 |  | 65.03 ± 9.86 ^4% | > 100 µM
O=c1c2ccccc2oc2ccc(O)c(O)c12 [Compound 3] |  |  |  | −0.05 ± 0.06 ^3 | 0.23 ± 0.04 ^8 |  |  | 
COc1cccc2c1C(=O)c1c(O)c3c(c(O)c1C2=O)C[C@@](O)(C(=O)CO)C[C@@H]3O[C@H]1C[C@H](N)[C@H](O)[C@H](C)O1 [Doxorubicin, reference compound] |  |  |  |  |  |  |  | 12.1 ± 0.81 µM

Reference: article PMC8158687, “Xanthones Active against Multidrug Resistance and Virulence Mechanisms of Bacteria” (Antibiotics, 2021)
